Assay [1] concerns NCI-H358. Conditions: read-out: set GI concentration (concentration as a single drug giving GI 50), set GI% 50%, 144 hours, test with trametinib. As for the experimental part:
(§1) Human cancer cell lines were seeded on a 384-well round bottom ultra-low attachment plate at a concentration of 750 cells per well and cultured in a 5% carbon gas incubator at 37°C. After 24 hours, CellTiter-Glo 2.0 (Promega Corporation) was added to part of the wells (3 wells), and the amount of ATP (V0) was determined using Envision plate readers (PerkinElmer Co., Ltd.). V0 was taken as the amount of ATP at time 0. DMSO alone or compound 1 and/or the compound for combined use each were added to another three wells. Compound 1 and the compound for combined use were used by serially diluting in 8 steps at a common ratio of 3 with 300 nM and 10 or 3000 nM taken as their respective highest concentrations. […] After culturing for 144 hours after addition of DMSO alone or compound 1 and/or the compound for combined use, the amount of ATP (T and V) was determined for the cells to which DMSO alone was added (DMSO-treated group) or the cells to which compound 1 and/or the compound for combined use was added (compound 1 and/or compound for combined use-treated group). […] The growth inhibition rate (Growth Inhibition %: GI%) was calculated using the following formulas. […] (1−(T−V0)/V0) × 100 [formula] (when T < V0) (1−(T−V0)/(V−V0)) × 100 [formula] […]

The subject of assay [2] is NCI-H358. Put plainly: Cell growth inhibitory activity, ATP (CellTiter-Glo 2.0), isobologram (Example 2), NCI-H358. Conditions: 144 hours. Format: cell-based, Human. How it is done:
as §1
In general terms: ATP-based viability assays read luminescence as a measure of living cells.

The subject of assay [3] is lung cancer line NCI-H1373 (KRAS-G12C). Description: In vivo antitumor activity, NCI-H1373 xenograft model (Example 11). More on the design: species or system Nude mice. Conditions: compound 1 5 mg/kg orally once a day, TNO155 5 mg/kg orally twice a day, 35 days, Figure 19. The source says: A xenograft model to which lung cancer line NCI-H1373 (KRAS-G12C) was transplanted was used to evaluate in vivo antitumor activity due to combined use of compound 1 and TNO155. Nude mice were subcutaneously transplanted with 5 × 10^6 cells per mouse, and when the tumor volume reached 200 to 300 mm^3, the nude mice were randomized and administration of compound 1 and/or the compound for combined use was started (n = 8). Compound 1 was orally administered once a day and TNO155 was orally administered twice a day for an administration period of 35 days. The doses of the agents were 5 mg/kg for compound 1 and 5 mg/kg for TNO155. Compound 1 was dissolved in 10% DMSO/5% Cremphor EL/85% Distilled water and TNO155 was dissolved in 0.5% Tween 80/0.5% methylcellulose/99% distilled water, and administered. From the tumor volume data on the last measurement day, the tumor growth inhibition rate (Tumor Growth Inhibition %: TGI%) was calculated using the following formulas. […] Tumor growth inhibition rate (TGI%) = (1−TV/CV) × 100 [formula] Tumor volume (mm^3) = 1/2 × major axis (mm) × minor axis (mm) × minor axis (mm) [formula] [formula] • TV: Mean of the amount of change in tumor volume in the compound 1 monotherapy group, the TNO155 monotherapy group, or the combined use group • CV: Mean of the amount of change in tumor volume in the vehicle group

The test system of another assay is NCI-H441. Put plainly: Cell growth inhibitory activity, ATP (CellTiter-Glo 2.0), isobologram (Example 2), NCI-H441. To be noted: set GI% 100%, 144 hours, test with RMC-4550. Format: cell-based, Human. How it is done:
as §1

In assay [4] the test system is lung cancer line NCI-H441 (KRAS-G12C). Put plainly: In vivo antitumor activity, NCI-H441 xenograft model (Example 12). More on the design: species or system Nude mice. Conditions: compound 1 3 mg/kg or 5 mg/kg, compound 2 0.25 mg/kg, orally once a day, 14 days, Figure 20. As for the experimental part:
(§2) A xenograft model to which lung cancer line NCI-H441 (KRAS-G12C) or NCI-H1373 (KRAS-G12C) was transplanted was used to evaluate in vivo antitumor activity due to combined use of compound 1 and compound 2. Nude mice were subcutaneously transplanted with 5 × 10^6 cells per mouse, and when the tumor volume reached 200 to 300 mm^3, randomization was performed and administration of compound 1 and/or the compound for combined use was started (n = 5). Compound 1 and compound 2 were orally administered once a day for an administration period of 14 days. The doses of the agents were 3 mg/kg or 5 mg/kg for compound 1 and 0.25 mg/kg for compound 2. Compound 1 was dissolved in 10% DMSO/5% Cremphor EL/85% Distilled water and compound 2 was dissolved in 10% DMSO/10% Cremphor EL/15% PEG400/15% HPBCD/50% distilled water, and administered. From the tumor volume data on the last measurement day, the tumor growth inhibition rate (Tumor Growth Inhibition %: TGI%) was calculated using the following formulas. […] Tumor growth inhibition rate (TGI%) = (1−TV/CV) × 100 [formula] Tumor volume (mm^3) = 1/2 × major axis (mm) × minor axis (mm) × minor axis (mm) [formula] [formula] • TV: Mean of the amount of change in tumor volume in the compound 1 monotherapy group, the compound 2 monotherapy group, or the combined use group • CV: Mean of the amount of change in tumor volume in the vehicle group

The subject of a further assay is NCI-H1373 (KRAS-G12C). Description: In vivo antitumor activity, NCI-H1373 xenograft model (Example 12). More on the design: species or system Nude mice. To be noted: compound 1 3 mg/kg or 5 mg/kg, compound 2 0.25 mg/kg, orally once a day, 14 days, Figure 21. How it is done:
as §2

Read-outs that look alike come from different tables or passages of the source. Bridge positions count the residues as written; N and C are the ends. Square brackets hold non-standard residues; d marks the D form. Peptide text beside a SMILES is read from it. hPhe(3,5-F2-4-CF3) = N[C@@H](CCc1cc(F)c(C(F)(F)F)c(F)c1)C(=O)O; NEtPhe(4-Me) = CCN[C@@H](Cc1ccc(C)cc1)C(=O)O; NMeGly(cPent) = CN[C@H](C(=O)O)C1CCCC1; NMeD = CN[C@@H](CC(=O)O)C(=O)O; NMeL = CN[C@@H](CC(C)C)C(=O)O; NMeA = CN[C@@H](C)C(=O)O; Ac5c = NC1(C(=O)O)CCCC1; Aze = O=C(O)[C@@H]1CCN1; Sar = CNCC(=O)O

For the compound `CC[C@H](C)[C@@H]1NC(=O)[C@H](CC(C)C)N(C)C(=O)C[C@@H](C(=O)N(C)C)N(C)C(=O)[C@H](C2CCCC2)N(C)C(=O)C2(CCCC2)NC(=O)[C@@H]2CCCN2C(=O)[C@H](CCc2cc(F)c(C(F)(F)F)c(F)c2)NC(=O)CN(C)C(=O)[C@H](Cc2ccc(C)cc2)N(CC)C(=O)[C@@H]2CCN2C(=O)[C@H](C)N(C)C1=O` [compound 1, (5S,8S,11S,15S,18S,23aS,29S,35S,37aS)-8-((S)-sec-butyl)-18-cyclopentyl-29-(3,5-difluoro-4-(trifluoromethyl)phenethyl)-36-ethyl-11-isobutyl-N,N,5,6,12,16,19,33-octamethyl-35-(4-methylbenzyl)-4,7,10,13,17,20,23,28,31,34,37-undecaoxotetratriacontahydro-2H,4H-spiro[azeto[2,1-u]pyrrolo[2,1-i][1,4,7,10,13,16,19,22,25,28,31]undecaazacyclotetratriacontyne-21,1'-cyclopentane]-15-carboxamide] ([NMeL]I[NMeA][Aze][NEtPhe(4-Me)][Sar][hPhe(3,5-F2-4-CF3)]P[Ac5c][NMeGly(cPent)][NMeD]-NMe2; lactam N-11), the GI50 in the assay with NCI-H358 [1] turned out to be 4.6 nM.
Turning to `CC(=O)Nc1cccc(-n2c(=O)n(C3CC3)c(=O)c3c(Nc4ccc(I)cc4F)n(C)c(=O)c(C)c32)c1` [trametinib, N-[3-[3-cyclopropyl-5-(2-fluoro-4-iodo-phenylamino)-6,8-dimethyl-2,4,7-trioxo-3,4,6,7-tetrahydro-2H-pyrido[4,3-d]pyrimidine-1-yl]phenyl]acetamide], the GI50 in the assay on NCI-H358 [2] (Homo sapiens, set GI% 50%, single drug, test with trametinib, read-out: set GI concentration (concentration as a single drug giving GI 50)) is 0.35 nM.
Take `C[C@@H]1OCC2(CCN(c3cnc(Sc4ccnc(N)c4Cl)c(N)n3)CC2)[C@@H]1N` [TNO155, (3S,4S)-8-(6-amino-5-((2-amino-3-chloropyridine-4-yl)thio)pyrazine-2-yl)-3-methyl-2-oxa-8-azaspiro[4.5]decane-4-amine]: the “tumor volume, compared with vehicle group” value in assay [3] is on record as “increase in tumor volume suppressed”.
On to `Cc1nc(N2CCC3(CC2)CO[C@@H](C)[C@H]3N)c(CO)nc1-c1cccc(Cl)c1Cl` [RMC-4550, 3-[(3S,4S)-4-amino-3-methyl-2-oxa-8-azaspiro[4.5]deca-8-yl]-6-(2,3-dichlorophenyl)-5-methyl-2-pyrazinemethanol], for which, in the assay with NCI-H358 [2] (set GI% 155%, test with RMC-4550), the “set GI concentration (concentration as a single drug giving GI 155)” value was determined as 0.55 µM. Moreover, the “set GI concentration (concentration as a single drug giving GI 100)” value in the assay with NCI-H441 turned out to be 0.35 µM.
As for `CNS(=O)(=O)Nc1nccc(Cc2cc(C(N)=O)c(Nc3ccc(C4CC4)cc3F)c(F)c2F)c1F` [compound 2, 2-(4-cyclopropyl-2-fluoro-anilino)-3,4-difluoro-5-[[3-fluoro-2-(methylsulfamoylamino)-4-pyridyl]methyl]benzamide], the “tumor volume, compared with vehicle group” value (in assay [4]; in the assay with NCI-H1373 (KRAS-G12C)) was “increase in tumor volume suppressed” each time.

(Values after patent publication EP4467154A1, “MEDICINE FOR TREATING OR PREVENTING CANCER” (CHUGAI SEIYAKU KABUSHIKI KAISHA, priority 2022, dated 2023).)
